Experimental data: patent publication US9527805B2, “Small molecules as epigenetic modulators of lysine-specific demethylase 1 and methods of treating disorders” (priority 2010, dated 2016)
Where two headings read alike, the source gives them in different places.

Experiments:
[1] = system: H3K4me2 in the P19 cell line; conditions: cited from earlier work
[2] = system: HCT116 human colon tumor xenograft; assay: HCT116 human colon tumor xenograft model; assay type: in vivo, athymic nu/nu Fox Chase mice; conditions: 2 mg/kg, 5 times a week over 38 days
Description: Previously, various polyaminobiguanidides were evaluated in an HCT116 human colon tumor xenograft model in athymic nu/nu Fox Chase mice. Mice were treated with polyaminobiguanidides, 5-azacytidine (5-AC) or a combination of the two agents. Drugs were administered 5 times a week over a period of 38 days.

[3] = target: T1, recombinant human LSD1 (Homo sapiens, UniProt O60341); assay: LSD1 demethylase assay, luminol-dependent chemiluminescence (H2O2 production), H3K4me2 (1-21 aa) peptide substrate; assay type: biochemical; conditions: compound at 10 μM
T1 construct: Full-length human LSD1 cDNA was subcloned into the pET15b bacterial expression vector; 6xHis (N); made in house; host or cells: Escherichia coli BL21(DE3)
Description: Full-length human LSD1 cDNA was subcloned into the pET15b bacterial expression vector (Novagen, Madison, Wis.) in frame with an N-terminal 6×HIS-tag and transformed into the BL21(DE3) strain of Escherichia coli. Following selection, expression and purification of recombinant LSD1 protein were performed as previously described. Briefly, expression of LSD1-HIS protein was induced by 1 mM IPTG for 6 h at 25° C. The HIS-tagged protein was purified using Ni-NTA affinity purification resin and column as recommended by the manufacturer (Qiagen, Valencia, Calif.). Bound protein was eluted by imidazole and the eluate was dialyzed in PBS at 4° C. Enzymatic activity of LSD1 was examined using luminol-dependent chemiluminescence to measure the production of H2O2, as previously described. In brief, LSD1 activity was assayed in 50 mM Tris, pH 8.5, 50 mM KCl, 5 mM MgCl, 5 nmol luminol, and 20 μg/ml horseradish peroxidase with the indicated concentrations of H3K4me2 (1-21 aa) peptide as substrate. The integral values were calibrated against standards containing known concentrations of H2O2, and the activities expressed as pmols H2O2/mg protein/min. Reaction mixtures were incubated with or without 5 μg purified LSD1 in 50 mM Tris, pH 8.5, 50 mM KCl, 5 mM MgCl, 0.5% BSA, and 5% glycerol for 3 hr at 37° C. This reaction mixture was analyzed by Western blotting using antibodies (Millipore) that specifically recognize the dimethyl group of H3K4.

[4] = system: H3K4me2; assay: H3K4me2 level by Western blotting of nuclear fractions; assay type: cell-based; conditions: Homo sapiens
Description: Synthetic H3K4me2 peptides were purchased from Millipore (Billerica, Mass.). Calu-6 cells were maintained in RPMI medium, both supplemented with 10% fetal bovine serum (Gemini Bio-Products, Woodland, Calif.) and grown at 37° C. in 5% CO2 atmosphere.
Cytoplasmic and nuclear fractions were prepared for Western blot analysis using the NE-PER™ Nuclear and Cytoplasmic Extraction Kit (Pierce, Rockford, Ill.). Primary antibodies against H3K4me2 were from Millipore. The pCNA monoclonal antibody was purchased from Oncogene Research Products (Cambridge, Mass.). Dye-conjugated secondary antibodies were used for quantification of Western blot results using the Odyssey Infrared Detection system and software (LI-COR Biosciences, Lincoln, Nebr.).

[5] = target: recombinant LSD1/CoRest complex (Homo sapiens, UniProt O60341); conditions: cited from earlier work
[6] = 24 h, read-out: H3K4me2 Fold Increase (24 h)
[7] = 48 h, read-out: H3K4me2 Fold Increase (48 h)

Row | remaining activity at 10 µM [3] | SMILES | other results
1 | – | N[C@@H]1C[C@H]1c1ccccc1 (racemic) [tranylcypromine] | effect on global levels of H3K4me2 (in words) [1]: increase global levels of H3K4me2
2 | – | Nc1ncn([C@@H]2O[C@H](CO)[C@@H](O)[C@H]2O)c(=O)n1 [Entry 5-AC, 5-azacytidine] | reduction of tumor growth [2]: about 50%
3 | 98.2% | O=C(O)CC(=O)Nc1ccccc1F [Entry 33] | fold induction at 5 µM [4, 6]: 1.81; fold induction at 10 µM [4, 6]: 1.5; fold induction at 5 µM [4, 7]: 3.15; fold induction at 10 µM [4, 7]: 1.09
4 | 92.6% | O=C(O)CCC(=O)Nc1ccccc1F [Entry 34] | –
5 | 100% | O=C(O)CCCC(=O)Nc1ccccc1F [Entry 35] | –
6 | 76.4% | O=C(O)CCCCC(=O)Nc1ccccc1F [Entry 36] | –
7 | 95.9% | O=C(O)CCCCCC(=O)Nc1ccccc1F [Entry 37] | –
8 | 88.4% | COC(=O)[C@@H](N)CCCCNC(=O)CC(=O)Nc1ccccc1F [Entry 38] | fold induction at 5 µM [4, 6]: 0.3; fold induction at 10 µM [4, 6]: 0.2; fold induction at 5 µM [4, 7]: 0.7; fold induction at 10 µM [4, 7]: 5.6
9 | 100% | COC(=O)[C@H](CCCCNC(=O)NC(c1ccccc1)c1ccccc1)NC(=O)CC(=O)Nc1ccccc1F [Entry 39] | –
10 | 100% | COC(=O)[C@H](CCCCNC(=O)NCC(c1ccccc1)c1ccccc1)NC(=O)CC(=O)Nc1ccccc1F [Entry 40] | –
11 | 100% | COC(=O)[C@H](CCCCNC(=O)NCCC(c1ccccc1)c1ccccc1)NC(=O)CC(=O)Nc1ccccc1F [Entry 41] | –
12 | 100% | COC(=O)[C@H](CCCCNC(=S)NC(c1ccccc1)c1ccccc1)NC(=O)CC(=O)Nc1ccccc1F [Entry 42] | fold induction at 5 µM [4, 6]: 49.1; fold induction at 10 µM [4, 6]: 60.6; fold induction at 5 µM [4, 7]: 0.5; fold induction at 10 µM [4, 7]: 3
13 | 100% | COC(=O)[C@H](CCCCNC(=S)NCC(c1ccccc1)c1ccccc1)NC(=O)CC(=O)Nc1ccccc1F [Entry 43] | –
14 | 100% | COC(=O)[C@H](CCCCNC(=S)NCCC(c1ccccc1)c1ccccc1)NC(=O)CC(=O)Nc1ccccc1F [Entry 44] | –
15 | 84.1% | C#CCN(CC#C)CCCC[C@H](NC(=O)CC(=O)Nc1ccccc1F)C(=O)OC [Entry 45] | –
16 | 90.4% | C#CCNCCCC[C@H](NC(=O)CC(=O)Nc1ccccc1F)C(=O)OC [Entry 46] | –
17 | 92.4% | C#CCN(CC#C)CCCC[C@H](NC(=O)CCC(=O)Nc1ccccc1F)C(=O)OC [Entry 47] | –
18 | 100% | C#CCN(CC#C)CCCC[C@H](NC(=O)CCCC(=O)Nc1ccccc1F)C(=O)OC [Entry 48] | –
19 | 100% | C#CCN(CC#C)CCCC[C@H](NC(=O)CCCCC(=O)Nc1ccccc1F)C(=O)OC [Entry 49] | –
20 | 100% | C#CCN(CC#C)CCCC[C@H](NC(=O)CCCCCC(=O)Nc1ccccc1F)C(=O)OC [Entry 50] | –
21 | – | NNCCc1ccccc1 [phenelzine] | effect on nucleosomal demethylation (in words) [5]: inactivate nucleosomal demethylation; effect on global levels of H3K4me2 (in words) [1]: increase global levels of H3K4me2
